From US10597388B2, “Pyridazinone herbicides” (FMC CORPORATION, priority 2014, dated 2020)

Legend:
Assay in all cases: Test D controlled growth environment herbicide test, pre- and postemergence
Type in all cases: in vivo
[1] = system: barley, spring (spring barley, Hordeum vulgare)
Procedure, shortened: (§1)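 Pre-emergence: seeds sown in silt loam soil were sprayed with compound in a non-phytotoxic solvent mix containing surfactant. Post-emergence: plants at 2 to 18 cm (1- to 4-leaf stage) in peat moss/vermiculite medium got the same formulation. Visual 0–100 rating versus controls after 14 to 21 d.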

[2] = system: barley, winter (winter barley, Hordeum vulgare)
Procedure, shortened: as §1

[3] = system: bluegrass (annual bluegrass, Poa annua)
Procedure, shortened: as §1

[4] = system: buckwheat, wild (wild buckwheat, Polygonum convolvulus)
Procedure, shortened: as §1

[5] = system: canarygrass (Phalaris minor)
Procedure, shortened: as §1

[6] = system: chamomile (scentless chamomile, Matricaria inodora)
Procedure, shortened: as §1

[7] = system: field poppy (Papaver rhoeas)
Procedure, shortened: as §1

[8] = system: field violet (Viola arvensis)
Procedure, shortened: as §1

[9] = system: galium (catchweed bedstraw, Galium aparine)
Procedure, shortened: as §1

kochia (Kochia scoparia) = system: kochia (Kochia scoparia)
Procedure, shortened: as §1

[10] = system: lambsquarters (Chenopodium album)
Procedure, shortened: as §1

[11] = system: pigweed (Amaranthus retroflexus)
Procedure, shortened: as §1

[12] = system: radish, wild (wild radish, Raphanus raphanistrum)
Procedure, shortened: as §1

[13] = system: windgrass (Apera spica-venti)
Procedure, shortened: as §1

[14] = Postemergence, 125 g ai/ha, visual rating on scale 0 (no effect) to 100 (complete control), 14 to 21 d
[15] = Postemergence, 250 g ai/ha, scale 0 to 100 (0 no effect, 100 complete control)
[16] = postemergence, 62 g ai/ha, scale 0 to 100, 0 no effect, 100 complete control
[17] = Postemergence, 31 g ai/ha, scale 0 to 100 (0 no effect, 100 complete control)
[18] = Preemergence, 62 g ai/ha, scale 0 to 100 (0 no effect, 100 complete control)
[19] = Preemergence, 125 g ai/ha, scale 0 to 100 (0 no effect, 100 complete control)
[20] = Preemergence, 250 g ai/ha, scale 0 to 100, 0 no effect, 100 complete control

Cc1ccc2ccccc2c1-c1c(O)c(Br)nn(C)c1=O [Compound 23]
35: Plant response rating, Bluegrass [3, 14] | Plant response rating, Bluegrass [3, 16]
90: Plant response rating, Canarygrass [5, 15]
15: Plant response rating, Barley, Spring [1, 16] | Plant response rating, Barley, Winter [2, 16]
100: Plant response rating, Buckwheat, Wild [4, 14] | Plant response rating, Buckwheat, Wild [4, 15] | Plant response rating, Buckwheat, Wild [4, 16] | Plant response rating, Chamomile [6, 15] | Plant response rating, Field Poppy [7, 14] | Plant response rating, Field Poppy [7, 15] | Plant response rating, Field Poppy [7, 16] | Plant response rating, Galium [9, 14] | Plant response rating, Galium [9, 15] | Plant response rating, Galium [9, 16] | Plant response rating, Pigweed [11, 15] | Plant response rating, Radish, Wild [12, 14] | Plant response rating, Radish, Wild [12, 15]
75: Plant response rating, Canarygrass [5, 16] | Plant response rating, Field Violet [8, 14] | Plant response rating, Field Violet [8, 15] | Plant response rating, Kochia (kochia (Kochia scoparia); [14]) | Plant response rating, Kochia (kochia (Kochia scoparia); [16]) | Plant response rating, Lambsquarters [10, 14] | Plant response rating, Lambsquarters [10, 16] | Plant response rating, Pigweed [11, 16] | Plant response rating, Radish, Wild [12, 16] | Plant response rating, Windgrass [13, 14]
85: Plant response rating, Canarygrass [5, 14] | Plant response rating, Chamomile [6, 14] | Plant response rating, Chamomile [6, 16] | Plant response rating, Pigweed [11, 14] | Plant response rating, Windgrass [13, 15]
80: Plant response rating, Kochia (kochia (Kochia scoparia); [15]) | Plant response rating, Lambsquarters [10, 15]
30: Plant response rating, Barley, Spring [1, 15] | Plant response rating, Barley, Winter [2, 15]
70: Plant response rating, Windgrass [13, 16]
45: Plant response rating, Field Violet [8, 16]
40: Plant response rating, Bluegrass [3, 15]
25: Plant response rating, Barley, Spring [1, 14] | Plant response rating, Barley, Winter [2, 14]

Cc1cc2ccccc2c(-c2c(O)c(C)nn(C)c2=O)c1C [Compound 34]
10: Bluegrass plant response rating [3, 17] | Plant response rating, Buckwheat, Wild [4, 18] | Plant response rating, Kochia (kochia (Kochia scoparia); [18])
100: Buckwheat, Wild plant response rating [4, 17] | Plant response rating, Buckwheat, Wild [4, 14] | Plant response rating, Buckwheat, Wild [4, 15] | Plant response rating, Buckwheat, Wild [4, 16] | Plant response rating, Chamomile [6, 14] | Plant response rating, Chamomile [6, 15] | Field Poppy plant response rating [7, 17] | Plant response rating, Field Poppy [7, 14] | Plant response rating, Field Poppy [7, 15] | Plant response rating, Field Poppy [7, 18] | Plant response rating, Field Poppy [7, 19] | Plant response rating, Field Poppy [7, 20] | Plant response rating, Field Poppy [7, 16] | Plant response rating, Field Violet [8, 16] | Plant response rating, Galium [9, 14] | Plant response rating, Galium [9, 15] | Plant response rating, Galium [9, 16] | Plant response rating, Lambsquarters [10, 14] | Plant response rating, Lambsquarters [10, 15] | Pigweed plant response rating [11, 17] | Plant response rating, Pigweed [11, 14] | Plant response rating, Pigweed [11, 15] | Plant response rating, Pigweed [11, 19] | Plant response rating, Pigweed [11, 20] | Plant response rating, Pigweed [11, 16]
30: Canarygrass plant response rating [5, 17]
85: Plant response rating, Canarygrass [5, 15] | Plant response rating, Galium [9, 20] | Plant response rating, Kochia (kochia (Kochia scoparia); [14]) | Plant response rating, Kochia (kochia (Kochia scoparia); [16]) | Plant response rating, Radish, Wild [12, 16]
60: Bluegrass plant response rating [3, 20] | Kochia plant response rating (kochia (Kochia scoparia); [17]) | Plant response rating (scale of 0 to 100), Lambsquarters ([10]; Preemergence, 31 g ai/ha) | Plant response rating, Lambsquarters [10, 18] | Plant response rating, Radish, Wild [12, 19] | Plant response rating, Radish, Wild [12, 20]
5: Plant response rating, Barley, Spring [1, 15]
75: Plant response rating, Canarygrass [5, 14] | Chamomile plant response rating [6, 17] | Field Violet plant response rating [8, 17] | Plant response rating, Field Violet [8, 19] | Plant response rating, Windgrass [13, 15]
55: Plant response rating, Windgrass [13, 19]
15: Plant response rating, Bluegrass [3, 14] | Plant response rating, Bluegrass [3, 16] | Plant response rating (scale of 0 to 100), Field Violet ([8]; Preemergence, 31 g ai/ha) | Plant response rating, Kochia (kochia (Kochia scoparia); [19]) | Plant response rating (scale of 0 to 100), Windgrass ([13]; Preemergence, 31 g ai/ha)
65: Barley, Winter plant response rating [2, 20] | Plant response rating, Canarygrass [5, 16] | Radish, Wild plant response rating [12, 17] | Plant response rating, Windgrass [13, 14]
80: Plant response rating, Chamomile [6, 16] | Plant response rating, Galium [9, 19]
25: Plant response rating, Bluegrass [3, 18] | Plant response rating, Field Violet [8, 18] | Plant response rating (scale of 0 to 100), Kochia (kochia (Kochia scoparia); Preemergence, 31 g ai/ha) | Plant response rating, Windgrass [13, 18]
40: Windgrass plant response rating [13, 17]
35: Plant response rating, Galium [9, 18]
20: Barley, Spring plant response rating [1, 20] | Plant response rating, Barley, Winter [2, 15] | Plant response rating, Bluegrass [3, 15] | Plant response rating (scale of 0 to 100), Canarygrass ([5]; Preemergence, 31 g ai/ha)
95: Plant response rating, Canarygrass [5, 20] | Plant response rating, Field Violet [8, 14] | Plant response rating, Field Violet [8, 15] | Plant response rating, Field Violet [8, 20] | Galium plant response rating [9, 17] | Plant response rating, Kochia (kochia (Kochia scoparia); [15]) | Plant response rating, Lambsquarters [10, 19] | Plant response rating, Lambsquarters [10, 20] | Plant response rating, Lambsquarters [10, 16] | Plant response rating, Pigweed [11, 18] | Plant response rating, Radish, Wild [12, 15]
0: Plant response rating, Barley, Spring [1, 17] | Plant response rating, Barley, Spring [1, 14] | Plant response rating (scale of 0 to 100), Barley, Spring ([1]; Preemergence, 31 g ai/ha) | Plant response rating, Barley, Spring [1, 18] | Plant response rating, Barley, Spring [1, 19] | Plant response rating, Barley, Spring [1, 16] | Plant response rating, Barley, Winter [2, 17] | Plant response rating, Barley, Winter [2, 14] | Plant response rating (scale of 0 to 100), Barley, Winter ([2]; Preemergence, 31 g ai/ha) | Plant response rating, Barley, Winter [2, 18] | Plant response rating, Barley, Winter [2, 19] | Plant response rating, Barley, Winter [2, 16] | Plant response rating (scale of 0 to 100), Bluegrass ([3]; Preemergence, 31 g ai/ha) | Plant response rating (scale of 0 to 100), Buckwheat, Wild ([4]; Preemergence, 31 g ai/ha) | Plant response rating, Buckwheat, Wild [4, 19] | Plant response rating, Buckwheat, Wild [4, 20] | Plant response rating (scale of 0 to 100), Galium ([9]; Preemergence, 31 g ai/ha) | Plant response rating (scale of 0 to 100), Radish, Wild ([12]; Preemergence, 31 g ai/ha) | Plant response rating, Radish, Wild [12, 18]
50: Plant response rating, Bluegrass [3, 19] | Plant response rating, Canarygrass [5, 18] | Plant response rating, Kochia (kochia (Kochia scoparia); [20]) | Plant response rating (scale of 0 to 100), Pigweed ([11]; Preemergence, 31 g ai/ha) | Plant response rating, Windgrass [13, 16]
90: Plant response rating, Canarygrass [5, 19] | Lambsquarters plant response rating [10, 17] | Plant response rating, Radish, Wild [12, 14]
70: Plant response rating, Windgrass [13, 20]
